In this test the target is T1, human GPR119 (hGPR119) (Homo sapiens, UniProt Q8TDV5).
T1 construct: expressed in transfected cells; host or cells: CHO-K1
T1 sequence (Q8TDV5 1-335): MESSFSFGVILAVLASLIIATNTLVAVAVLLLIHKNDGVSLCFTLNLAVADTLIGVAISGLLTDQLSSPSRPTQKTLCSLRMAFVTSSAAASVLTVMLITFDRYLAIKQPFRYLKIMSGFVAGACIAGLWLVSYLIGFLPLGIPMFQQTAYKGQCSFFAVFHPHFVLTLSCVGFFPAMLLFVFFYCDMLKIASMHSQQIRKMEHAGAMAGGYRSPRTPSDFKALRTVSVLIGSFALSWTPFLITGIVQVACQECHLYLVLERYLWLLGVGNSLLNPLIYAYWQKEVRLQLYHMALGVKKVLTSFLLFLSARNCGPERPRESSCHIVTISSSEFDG
As to the kind of experiment: cAMP accumulation assay in CHO-K1 cells stably expressing hGPR119. Type of test: cell-based. Particulars: cAMP HTRF, 60 minutes. Here is the method: CHO-K1 cells stably expressing human GPR119 (hGPR119) were prepared by transfection of a GPR119-carrying plasmid using Lipofectamine 2000 (following manufacturer instructions). A stable cell line was established using the limiting dilution method with geneticine selection. Assay-ready frozen (ARF) cells were prepared and used throughout the study.
The assay was performed in a 384-well plate format using the CAMP Gs dynamic assay kit from Cisbio. ARF cells expressing hGPR119 were thawed, washed and then resuspended in CAMP stimulation buffer at a cell density of 1.1×10^6 cells/mL. Cells were plated at a density of ~10,000 cells/well (9 μL/well). Dose response curves for the tested compounds were prepared in a cAMP stimulation buffer, containing 0.1% Tween 80 at 4 fold the final concentration. The compounds were then transferred to the cell plates using BRAVO (3 μL/well) and the plates were incubated for 60 minutes at 37° C./5% CO2. Detection buffer (10 μL, prepared as described in the CAMP Gs dynamic kit) were added to each well, and the plates were incubated at ambient temperature for 1 hr.
RT-FRET was measured using a ClarioSTAR plate reader, calculating the ratio between emissions at 665 nm and 620 nm (HTRF ratio). The HTRF ratio for positive (Max) and negative (Min) controls were used to normalize HTRF data and generate values for % activity. EC50 and Max activity values were determined using a standard 4-parameter fit.

In the case of “1-[2-[2-fluoro-4-[3-[1-[5- (methoxymethyl)pyrimidin-2-yl]-4- piperidyl]propoxy]phenyl]acetyl]-N-[2-[2- hydroxy-1,1- bis(hydroxymethyl)ethyl]carbamoylamino] ethyl]azetidine-3-carboxamide [Compound A2]”, the EC50 – broadly, the concentration needed to bring the measured effect to its halfway point – is 100 to 1000 nM.

Molecule `O=C(NCCO[C@H]1O[C@H](CO)[C@@H](O)[C@H](O)[C@@H]1O)C1CN(C(=O)Cc2ccc(OCCCC3CCN(c4ncc(Cl)cn4)CC3)cc2F)C1` (racemic) [Compound A6, 1-[2-[4-[3-[1-(5-chloropyrimidin-2-yl)-4-piperidyl]propoxy]-2-fluoro-phenyl]acetyl]-N-[2-[rac-(2S,3S,4S,5S,6R)-3,4,5-trihydroxy-6-(hydroxymethyl)tetrahydropyran-2-yl]oxyethyl]azetidine-3-carboxamide] came in with an EC50 of 100 to 1000 nM.

The molecule `O=C(NC[C@H](O)[C@@H](O)[C@H](O)[C@H](O)CO)C1CN(C(=O)Cc2ccc(OCCCC3CCN(c4ncc(Cl)cn4)CC3)cc2F)C1` (racemic) [Compound A10, 1-[2-[4-[3-[1-(5-chloropyrimidin-2-yl)-4-piperidyl]propoxy]-2-fluoro-phenyl]acetyl]-N-[rac-(2S,3R,4R,5R)-2,3,4,5,6-pentahydroxyhexyl]azetidine-3-carboxamide] had an EC50 of 100 to 1000 nM.

On to `O=C(CC1CN(C(=O)Cc2ccc(OCCCC3CCN(c4ncc(Cl)cn4)CC3)cc2F)C1)NC[C@H](O)[C@@H](O)[C@H](O)[C@H](O)CO` (racemic) [Compound A11, 2-[1-[2-[4-[3-[1-(5-chloropyrimidin-2-yl)-4-piperidyl]propoxy]-2-fluoro-phenyl]acetyl]azetidin-3-yl]-N-[rac-(2S,3R,4R,5R)-2,3,4,5,6-pentahydroxyhexyl]acetamide], for which the EC50 is 100 to 1000 nM.

As for `COCc1cnc(N2CCC(CCCOc3ccc(CC(=O)N4CC(C(=O)NC[C@H](O)[C@@H](O)[C@H](O)[C@H](O)CO)C4)c(F)c3)CC2)nc1` (racemic) [Compound A12, 1-[2-[2-fluoro-4-[3-[1-[5-(methoxymethyl)pyrimidin-2-yl]-4-piperidyl]propoxy]phenyl]acetyl]-N-[rac-(2S,3R,4R,5R)-2,3,4,5,6-pentahydroxyhexyl]azetidine-3-carboxamide], the EC50 was in the range of 100 to 1000 nM.

On to `O=C(Cc1ccc(OCCCC2CCN(c3ncc(Cl)cn3)CC2)cc1F)N1CC(CN[C@@H]2C[C@H](O)[C@@H](O)[C@H]2O)C1` (racemic) [Compound A21, 2-[4-[3-[1-(5-chloropyrimidin-2-yl)-4-piperidyl]propoxy]-2-fluoro-phenyl]-1-[3-[[[rac-(1R,2S,3R,4S)-2,3,4-trihydroxycyclopentyl]amino]methyl]azetidin-1-yl]ethanone], for which the EC50 lay in the range of 100 to 1000 nM.

In the case of `COc1cnc(N2CCC(CCCOc3ccc(CC(=O)N4CC(CNC[C@H](O)[C@@H](O)[C@H](O)[C@H](O)CO)C4)c(F)c3)CC2)nc1` (racemic) [Compound A49, 2-[2-fluoro-4-[3-[1-(5-methoxypyrimidin-2-yl)-4-piperidyl]propoxy]phenyl]-1-[3-[rac-(2S,3R,4R,5R)-2,3,4,5,6-pentahydroxyhexyl]amino]methyl]azetidin-1-yl]ethanone], the EC50 lay within 100 to 1000 nM.

Molecule `CCOc1cnc(N2CCC(CCCOc3ccc(CC(=O)N4CC(CNC[C@H](O)[C@@H](O)[C@H](O)[C@H](O)CO)C4)c(F)c3)CC2)nc1` (racemic) [Compound A50, 2-[4-[3-[1-(5-ethoxypyrimidin-2-yl)-4-piperidyl]propoxy]-2-fluoro-phenyl]-1-[3-[[[rac-(2S,3R,4R,5R)-2,3,4,5,6-pentahydroxyhexyl]amino]methyl]azetidin-1-yl]ethanone] showed a concentration giving a half-maximal response (EC50) of 100 to 1000 nM.

In turn, `O=C(Cc1ccc(OCCCC2CCN(c3ncc(Cl)cn3)CC2)cc1F)N1CC(CN2C[C@H](O)[C@@H](O)C2)C1` (stereo in doubt) [Compound A18, 2-[4-[3-[1-(5-chloropyrimidin-2-yl)-4-piperidyl]propoxy]-2-fluoro-phenyl]-1-[3-[[rac-(3S,4S)-3,4-dihydroxypyrrolidin-1-yl]methyl]azetidin-1-yl]ethanone] yielded an EC50 not above 100 nM.

In turn, `O=C(Cc1ccc(OCCCC2CCN(c3ncc(Cl)cn3)CC2)cc1F)N1CC(CN2C[C@@H](O)[C@H](O)C2)C1` (stereo in doubt) [Compound A19, 2-[4-[3-[1-(5-chloropyrimidin-2-yl)-4-piperidyl]propoxy]-2-fluoro-phenyl]-1-[3-[[rac-(3R,4R)-3,4-dihydroxypyrrolidin-1-yl]methyl]azetidin-1-yl]ethanone] showed an EC50 not above 100 nM.

On to `O=C(NC(CO)(CO)CO)C1CN(C(=O)Cc2c(F)cc(OCCCC3CCN(c4ncc(Cl)cn4)CC3)cc2F)C1` [Compound A1, 1-[2-[4-[3-[1-(5-chloropyrimidin-2-yl)-4-piperidyl]propoxy]-2,6-difluoro-phenyl]acetyl]-N-[2-hydroxy-1,1-bis(hydroxymethyl)ethyl]azetidine-3-carboxamide], for which the EC50 was not above 100 nM.

In the case of `O=C(NC(CO)CO)C1CN(C(=O)Cc2ccc(OCCCC3CCN(c4ncc(Cl)cn4)CC3)cc2F)C1` [Compound A3, 1-[2-[4-[3-[1-(5-chloropyrimidin-2-yl)-4-piperidyl]propoxy]-2-fluoro-phenyl]acetyl]-N-[2-hydroxy-1-(hydroxymethyl)ethyl]azetidine-3-carboxamide], the EC50 is 100 to 1000 nM.

In turn, `O=C(NC(CO)(CO)CO)C1CN(C(=O)Cc2ccc(OCCCC3CCN(c4ncc(Cl)cn4)CC3)cc2F)C1` [Compound A4, 1-[2-[4-[3-[1-(5-chloropyrimidin-2-yl)-4-piperidyl]propoxy]-2-fluoro-phenyl]acetyl]-N-[2-hydroxy-1,1-bis(hydroxymethyl)ethyl]azetidine-3-carboxamide] yielded an EC50 not above 100 nM.

As for `O=C(NCC(O)(CO)CO)C1CN(C(=O)Cc2ccc(OCCCC3CCN(c4ncc(Cl)cn4)CC3)cc2F)C1` [Compound A5, 1-[2-[4-[3-[1-(5-chloropyrimidin-2-yl)-4-piperidyl]propoxy]-2-fluoro-phenyl]acetyl]-N-[2,3-dihydroxy-2-(hydroxymethyl)propyl]azetidine-3-carboxamide], the EC50 was not above 100 nM.

As to `O=C(CC1CN(C(=O)Cc2ccc(OCCCC3CCN(c4ncc(Cl)cn4)CC3)cc2F)C1)NC(CO)(CO)CO` [Compound A7, 2-[1-[2-[4-[3-[1-(5-chloropyrimidin-2-yl)-4-piperidyl]propoxy]-2-fluoro-phenyl]acetyl]azetidin-3-yl]-N-[2-hydroxy-1,1-bis(hydroxymethyl)ethyl]acetamide], the EC50 lay within 100 to 1000 nM.

`O=C(CC1CN(C(=O)Cc2ccc(OCCCC3CCN(c4ncc(Cl)cn4)CC3)cc2F)C1)NCC(O)(CO)CO` [Compound A8, 2-[1-[2-[4-[3-[1-(5-chloropyrimidin-2-yl)-4-piperidyl]propoxy]-2-fluoro-phenyl]acetyl]azetidin-3-yl]-N-[2,3-dihydroxy-2-(hydroxymethyl)propyl]acetamide] came in with an EC50 of 100 to 1000 nM.

As for `O=C(CC1CN(C(=O)Cc2c(F)cc(OCCCC3CCN(c4ncc(Cl)cn4)CC3)cc2F)C1)NCC(O)(CO)CO` [Compound A9, 2-[1-[2-[4-[3-[1-(5-chloropyrimidin-2-yl)-4-piperidyl]propoxy]-2,6-difluoro-phenyl]acetyl]azetidin-3-yl]-N-[2,3-dihydroxy-2-(hydroxymethyl)propyl]acetamide], the EC50 is not above 100 nM.

Molecule `O=C(Cc1ccc(OCCCC2CCN(c3ncc(Cl)cn3)CC2)cc1F)N1CC(CNC[C@H](O)[C@@H](O)[C@H](O)[C@H](O)CO)C1` [Compound A14, 2-[4-[3-[1-(5-chloropyrimidin-2-yl)-4-piperidyl]propoxy]-2-fluoro-phenyl]-1-[3-[[[(2S,3R,4R,5R)-2,3,4,5,6-pentahydroxyhexyl]amino]methyl]azetidin-1-yl]ethanone] registered an EC50 of 100 to 1000 nM.

`O=C(Cc1ccc(OCCCC2CCN(c3ncc(Cl)cn3)CC2)cc1F)N1CC(CNCC(O)(CO)CO)C1` [Compound A15, 2-[4-[3-[1-(5-chloropyrimidin-2-yl)-4-piperidyl]propoxy]-2-fluoro-phenyl]-1-[3-[[[2,3-dihydroxy-2-(hydroxymethyl)propyl]amino]methyl]azetidin-1-yl]ethanone] came in with an EC50 not above 100 nM.

`O=C(Cc1ccc(OCCCC2CCN(c3ncc(Cl)cn3)CC2)cc1F)N1CC(CNC(CO)(CO)CO)C1` [Compound A16, 2-[4-[3-[1-(5-chloropyrimidin-2-yl)-4-piperidyl]propoxy]-2-fluoro-phenyl]-1-[3-[[[2-hydroxy-1,1-bis(hydroxymethyl)ethyl]amino]methyl]azetidin-1-yl]ethanone] showed an EC50 not above 100 nM.

As for `O=C(Cc1ccc(OCCCC2CCN(c3ncc(Cl)cn3)CC2)cc1F)N1CC(CNCC(CO)CO)C1` [Compound A17], the EC50 was not above 100 nM.

Source of the values: US20260191858A1, “COMBINATION THERAPIES” (Kallyope, Inc., priority 2022, published 2026).
